Laboratory results taken from BigSolDB 2.1.

CC1Cc2ccccc2N1NC(=O)c1ccc(Cl)c(S(N)(=O)=O)c1 (stereo not given)
solubility (mole fraction)
Settings | in 2-butanone | in acetone | in acetonitrile | in cyclohexane | in ethanol | in ethyl acetate | in isopropanol | in methanol | in n-propanol | in toluene
278.15 K | 0.0155 | 0.0204 | 0.00184 | 1.28e-06 | 0.00383 | 0.000455 | 0.0012 | 0.00524 | 0.00285 | 4.36e-06
283.15 K | 0.0175 | 0.0228 | 0.00278 | 2.34e-06 | 0.00514 | 0.000769 | 0.00187 | 0.00676 | 0.00398 | 6.4e-06
288.15 K | 0.0198 | 0.0257 | 0.00391 | 3.75e-06 | 0.00709 | 0.00115 | 0.00279 | 0.00877 | 0.00531 | 1.08e-05
293.15 K | 0.0225 | 0.0288 | 0.00536 | 5.88e-06 | 0.00913 | 0.00165 | 0.00386 | 0.0115 | 0.00685 | 1.68e-05
298.15 K | 0.0255 | 0.0322 | 0.00714 | 9.3e-06 | 0.0116 | 0.00235 | 0.00535 | 0.0147 | 0.00884 | 2.54e-05
303.15 K | 0.0291 | 0.036 | 0.00953 | 1.45e-05 | 0.0148 | 0.00336 | 0.00732 | 0.0187 | 0.0114 | 3.62e-05
308.15 K | 0.0329 | 0.0402 | 0.0124 | 2.23e-05 | 0.0186 | 0.00464 | 0.00979 | 0.023 | 0.0143 | 5.21e-05
313.15 K | 0.0371 | 0.0445 | 0.0158 | 3.36e-05 | 0.0227 | 0.00638 | 0.013 | 0.0276 | 0.0177 | 7.52e-05
318.15 K | 0.0417 | 0.0495 | 0.0199 | 5.02e-05 | 0.0275 | 0.00855 | 0.0168 | 0.033 | 0.0219 | 0.000106
